According to paper PMC4604170 (PLoS ONE, 2015):

How the values were obtained:
[1] = no data for the cornea; cited from earlier work
Text: It may therefore bind to lectin-like proteins of the stromal extracellular matrix, reducing its bioavailability fur ...

[2] = Corneal and aqueous humour vancomycin quantification by LC-MS; assay type: in vivo, New Zealand White rabbits; conditions: for Vancomycin in the aqueous humour: rabbit; for Vancomycin in the aqueous humour / Corneal vancomycin concentration / Aqueous humour vancomycin concentration: LC-MS; for Corneal vancomycin concentration / Aqueous humour vancomycin concentration: after 4 days of vancomycin 1.4% drops 5 times/day; for Period of drop instillation required to achieve MIC in the cornea: vancomycin 1.4% drops five times a day
Description: Prior to starting the antibiotic regimen, the cornea of the right eye had complete epithelial debridement following application of 20% alcohol for 60 seconds, whereas the epithelium of the left cornea was not debrided.
Aqueous humour samples (120–150 μL) were extracted with three equivalents of methanol (Merck, Darmstadt, Germany). The samples were shaken for 5 min at 1200 rpm (20°C) and centrifuged for 10 min at 16,000 g (4°C). The supernatants were transferred to fresh tubes and dried in a vacuum concentrator. Cornea samples were cut and ground with a pestle while frozen. They were next homogenized on ice with 300 μL of 3:1 methanol/water with 0.1% formic acid (Sigma Aldrich, St. Louis, MO, USA) for 1 min. The homogenates were then spun down briefly on a capsule centrifuge and supernatants transferred to fresh tubes. The residues were homogenized and spun down a second time. The extracts were combined and centrifuged for 10 min at 16,000 g (4°C). The supernatants were transferred to fresh tubes and dried in a vacuum concentrator. Samples were reconstituted in water (Ultrapure water, Millipore purification unit) and centrifuged for 5 min at 16,000 g (10°C) before transferring to autosampler vials for LC-MS/MS analysis.
Chromatographic separation was performed on a Waters 2695 Separations Module (Milford, MA, USA) with a Thermo Scientific Hypersil Gold C18 column (Whaltham, MA, USA) (2.1 × 50 mm, 3 μm). The mobile phase was A: 0.1% formic acid in water and B: 0.1% formic acid in acetonitrile. The gradient profile was 2% B at 0 min, 25% B at 6 min, 90% B from 6.5 to 8.5 min and 2% B from 9 to 13 min. The flow rate was 0.3 ml/min. The autosampler and column heater temperatures were maintained at 10 and 30°C, respectively. Detection was performed by an AB Sciex API 2000 triple quadrupole mass spectrometer (Concord, Canada) with an electrospray ionization source operating in the positive ionization mode. The ion source voltage was set to 5 kV.

[3] = system: Staphylococcus aureus ATCC29213; experiment: Effectiveness of prophylaxis once the corneal MIC was achieved (inoculation after 16 days of drops); assay type: in vivo, New Zealand White rabbits; conditions: inoculation after 16 days of vancomycin 1.4% drops 5 times/day; 3 rabbits with titanium film implant
Description: Following bacterial inoculation, development of infection was assessed clinically with SLP and AS-OCT imaging.

## CN[C@H](CC(C)C)C(=O)N[C@H]1C(=O)N[C@@H](CC(N)=O)C(=O)N[C@H]2C(=O)N[C@H]3C(=O)N[C@H](C(=O)N[C@H](C(=O)O)c4cc(O)cc(O)c4-c4cc3ccc4O)[C@H](O)c3ccc(c(Cl)c3)Oc3cc2cc(c3O[C@@H]2O[C@H](CO)[C@@H](O)[C@H](O)[C@H]2O[C@H]2C[C@](C)(N)[C@H](O)[C@H](C)O2)Oc2ccc(cc2Cl)[C@H]1O [vancomycin]
[1]
  Binding to proteins: moderate
[2]; after 2 days of vancomycin 1.4% drops 5 times/day
  Vancomycin in the aqueous humour: not detected
[2]; with epithelial removal (right eye, 20% alcohol 60 seconds), 3 rabbits, p = 0.115
  Corneal vancomycin concentration: 2.57 ± 0.40 µg/mL
[2]; with epithelial removal, p = 0.063
  Aqueous humour vancomycin concentration: 0.43 ± 0.15 µg/mL
[2]; without epithelial removal (left eye), 3 rabbits without implant
  Corneal vancomycin concentration: 1.36 ± 0.45 µg/mL
[2]; without epithelial removal
  Aqueous humour vancomycin concentration: 0.04 ± 0.005 µg/mL
[2]; day 10 of vancomycin 1.4% drops 5 times/day
  Vancomycin in the aqueous humour: below the level of quantification
[2]; day 16 of vancomycin 1.4% drops 5 times/day
  Vancomycin in the aqueous humour: below the level of quantification
[2]; 100% compliance, epithelium not debrided
  Period of drop instillation required to achieve MIC in the cornea: 16 days
[2]; epithelium debrided
  Period of drop instillation required to achieve MIC in the cornea: ≤ 4 days
[3]
  Rabbits showing evidence of corneal infection by day 2 post-inoculation: 2 of the 3
